Experimental data: publication PMC10194981, “Chemosensory protein regulates the behavioural response of Frankliniella intonsa and Frankliniella occidentalis to tomato zonate spot virus–Infected pepper (Capsicum annuum)” (PLOS Pathogens, 2023)

Key:
FoccCSP-Asp64Ala = FoccCSP-Asp64Ala (Frankliniella occidentalis, UniProt G4Y3X1, D64A); assay: Fluorescence (1-NPN) binding and competitive binding assay, FoccCSP mutant
Method: (§1) The binding affinity of FintCSP1 and FoccCSP to the fluorescent probe N-phenyl-1-naphthylamine (1-NPN) was tested using a Spectramax M2 fluorescence spectrometer (Molecular Devices, USA) as reported previously. […] The 1-NPN/FintCSP1 or 1-NPN/FoccCSP mixture was excited at 280 nm, and the emission spectra were recorded at 415 nm. The binding constants (Kd) of FintCSP1 or FoccCSP to 1-NPN were calculated by Scatchard analysis using Prism 5 software (GraphPad, La Jolla, CA, USA). Assuming a protein activity of 100% and that the volatile compound binds to the protein in a 1:1 ratio at saturation, the dissociation constants (Ki) of FintCSP1 or FoccCSP for each ligand were calculated according to the IC50 (the concentration when the ligand replaces 50% of the probe) value of the volatile compounds. The Ki values were calculated according to the following equation: Ki = [IC50]/(1 + [1-NPN]/K1-NPN), where [1-NPN] is the free concentration of 1-NPN, and K1-NPN is the Kd of the 1-NPN/FintCSP1 or 1-NPN/FoccCSP.
(§2) To verify the key amino acids of FintCSP1 and FoccCSP that bind to cis-3-hexenal, six amino acid residues of FintCSP1 were mutated (Lys26Ala, Phe27Ala, Thr28Ala, Glu67Ala, Ser84Ala, and the negative control residue Val132Ala) and nine amino acid residues of FoccCSP were mutated (Lys26Ala, Phe27Ala, Thr28Ala, Thr29Ala, Tyr31Ala, Asp64Ala, Glu67Ala, Gln87Ala, and the negative control residue Val132Ala) with the Fast Mutagenesis System Kit (Transgen Biotech, Beijing, China) using the pET-30a/FintCSP1 and pET-30a/FoccCSP plasmid DNA as template, respectively. Specific primers were designed using Primer Premier 5.0 according to the instructions of the Fast Mutagenesis System Kit (S1 Table). After validation by sequencing, each recombinant variant protein was produced and purified as described above, and their binding affinity to cis-3-hexenal was measured as described above.

FoccCSP-Glu67Ala = FoccCSP-Glu67Ala (Frankliniella occidentalis, UniProt G4Y3X1, E67A); assay: as above
FoccCSP-Glu67Ala, sequence (G4Y3X1 entry or part of it E67A): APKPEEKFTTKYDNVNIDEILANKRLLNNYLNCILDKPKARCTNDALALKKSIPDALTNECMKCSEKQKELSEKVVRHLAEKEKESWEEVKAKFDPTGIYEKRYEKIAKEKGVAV
Method: as §1, §2

FoccCSP-Thr29Ala = FoccCSP-Thr29Ala (Frankliniella occidentalis, UniProt G4Y3X1, T29A); assay: as above
FoccCSP-Thr29Ala, sequence (G4Y3X1 entry or part of it T29A): as the sequence (G4Y3X1 entry or part of it E67A) above, with T10A, A48E counted along it
Method: as §1, §2

FoccCSP-Thr28Ala = FoccCSP-Thr28Ala (Frankliniella occidentalis, UniProt G4Y3X1, T28A); assay: as above
FoccCSP-Thr28Ala, sequence (G4Y3X1 entry or part of it T28A): as the sequence (G4Y3X1 entry or part of it E67A) above, with T9A, A48E counted along it
Method: as §1, §2

FoccCSP-Phe27Ala = FoccCSP-Phe27Ala (Frankliniella occidentalis, UniProt G4Y3X1, F27A); assay: as above
FoccCSP-Phe27Ala, sequence (G4Y3X1 entry or part of it F27A): as the sequence (G4Y3X1 entry or part of it E67A) above, with F8A, A48E counted along it
Method: as §1, §2

FintCSP1-Ser84Ala = FintCSP1-Ser84Ala (Frankliniella intonsa, UniProt A0A891LVF4, S84A); assay: Fluorescence (1-NPN) binding and competitive binding assay, FintCSP1 mutant
FintCSP1-Ser84Ala, sequence (A0A891LVF4 entry or part of it S84A): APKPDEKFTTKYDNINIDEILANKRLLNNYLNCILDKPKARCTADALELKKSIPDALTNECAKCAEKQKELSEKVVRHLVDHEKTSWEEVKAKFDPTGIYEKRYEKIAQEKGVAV
Method: (§3) The binding affinity of FintCSP1 and FoccCSP to the fluorescent probe N-phenyl-1-naphthylamine (1-NPN) was tested using a Spectramax M2 fluorescence spectrometer (Molecular Devices, USA) as reported previously. Volatile compounds and 1-NPN were first dissolved to a concentration of 1 mM in HPLC-grade methanol and dissolved to their indicated final concentration (2–20 μM) to titrate 2 μM protein solutions resuspended in 50 mM Tris-HCl (pH 7.4). The 1-NPN/FintCSP1 or 1-NPN/FoccCSP mixture was excited at 280 nm, and the emission spectra were recorded at 415 nm. The binding constants (Kd) of FintCSP1 or FoccCSP to 1-NPN were calculated by Scatchard analysis using Prism 5 software (GraphPad, La Jolla, CA, USA). Assuming a protein activity of 100% and that the volatile compound binds to the protein in a 1:1 ratio at saturation, the dissociation constants (Ki) of FintCSP1 or FoccCSP for each ligand were calculated according to the IC50 (the concentration when the ligand replaces 50% of the probe) value of the volatile compounds. The Ki values were calculated according to the following equation: Ki = [IC50]/(1 + [1-NPN]/K1-NPN), where [1-NPN] is the free concentration of 1-NPN, and K1-NPN is the Kd of the 1-NPN/FintCSP1 or 1-NPN/FoccCSP.
as §2, with “Specific primers were designed using Primer Premier 5.0 according to the instructions of the Fast Mutagenesis System Kit (S1 Table).” left out

FintCSP1-Val132Ala = FintCSP1-Val132Ala (Frankliniella intonsa, UniProt A0A891LVF4, V132A); assay: Fluorescence (1-NPN) binding and competitive binding assay, FintCSP1 mutant (negative control residue)
FintCSP1-Val132Ala, sequence (A0A891LVF4 entry or part of it V132A): as the sequence (A0A891LVF4 entry or part of it S84A) above, with A65S, V113A counted along it
Method: as §3
as §2, with “Specific primers were designed using Primer Premier 5.0 according to the instructions of the Fast Mutagenesis System Kit (S1 Table).” left out

FoccCSP-Asp64Ala, sequence (G4Y3X1 entry or part of it D64A): as the sequence (G4Y3X1 entry or part of it E67A) above, with D45A, A48E counted along it

## CC/C=C\CC=O [cis-3-hexenal]
FoccCSP-Asp64Ala
  IC50: 65.9 ± 0.79 µM
  Ki: 62.2 ± 0.75 µM
FoccCSP-Asp64Ala; FoccCSP-Asp64Ala compared to the wild-type protein
  binding affinity to cis-3-hexenal (in words): significantly decreased binding affinities
FoccCSP-Glu67Ala
  IC50: 92.9 ± 2.14 µM
  Ki: 83.7 ± 1.93 µM
FoccCSP-Glu67Ala; FoccCSP-Glu67Ala compared to the wild-type protein
  binding affinity to cis-3-hexenal (in words): significantly decreased binding affinities
FoccCSP-Thr29Ala
  IC50: > 100 µM
FoccCSP-Thr29Ala; FoccCSP-Thr29Ala
  affinity for cis-3-hexenal (in words): no affinity
FoccCSP-Thr28Ala
  IC50: > 100 µM
FoccCSP-Thr28Ala; FoccCSP-Thr28Ala
  affinity for cis-3-hexenal (in words): no affinity
FoccCSP-Phe27Ala
  IC50: > 100 µM
FoccCSP-Phe27Ala; FoccCSP-Phe27Ala
  affinity for cis-3-hexenal (in words): no affinity
FintCSP1-Ser84Ala
  IC50: 41.3 ± 3.96 µM
  Ki: 29.7 ± 2.84 µM
FintCSP1-Val132Ala
  IC50: 39.24 ± 0.36 µM
  Ki: 32.18 ± 0.29 µM
